# Data as given in patent US10399948B2, “Negative allosteric modulators of metabotropic glutamate receptor 3” (Vanderbilt University, priority 2015, dated 2019).
# Read-outs that look alike come from different tables or passages of the source.
# Key:
# Assay type in all cases: cell-based
# rat mGlu5 = rat mGlu5 (Rattus norvegicus (Rat), UniProt P31424); assay: mGlu5 Ca2+ flux assay; conditions: for EC50: glutamate EC20, >10,000 = no plateau, >30,000 = no measurable activity, read-out: rat mGlu5 EC50 or IC50; for activity at 30 µM: read-out: rat mGlu5 Glu max (%)
# Chain of rat mGlu5 (P31424 21-1203): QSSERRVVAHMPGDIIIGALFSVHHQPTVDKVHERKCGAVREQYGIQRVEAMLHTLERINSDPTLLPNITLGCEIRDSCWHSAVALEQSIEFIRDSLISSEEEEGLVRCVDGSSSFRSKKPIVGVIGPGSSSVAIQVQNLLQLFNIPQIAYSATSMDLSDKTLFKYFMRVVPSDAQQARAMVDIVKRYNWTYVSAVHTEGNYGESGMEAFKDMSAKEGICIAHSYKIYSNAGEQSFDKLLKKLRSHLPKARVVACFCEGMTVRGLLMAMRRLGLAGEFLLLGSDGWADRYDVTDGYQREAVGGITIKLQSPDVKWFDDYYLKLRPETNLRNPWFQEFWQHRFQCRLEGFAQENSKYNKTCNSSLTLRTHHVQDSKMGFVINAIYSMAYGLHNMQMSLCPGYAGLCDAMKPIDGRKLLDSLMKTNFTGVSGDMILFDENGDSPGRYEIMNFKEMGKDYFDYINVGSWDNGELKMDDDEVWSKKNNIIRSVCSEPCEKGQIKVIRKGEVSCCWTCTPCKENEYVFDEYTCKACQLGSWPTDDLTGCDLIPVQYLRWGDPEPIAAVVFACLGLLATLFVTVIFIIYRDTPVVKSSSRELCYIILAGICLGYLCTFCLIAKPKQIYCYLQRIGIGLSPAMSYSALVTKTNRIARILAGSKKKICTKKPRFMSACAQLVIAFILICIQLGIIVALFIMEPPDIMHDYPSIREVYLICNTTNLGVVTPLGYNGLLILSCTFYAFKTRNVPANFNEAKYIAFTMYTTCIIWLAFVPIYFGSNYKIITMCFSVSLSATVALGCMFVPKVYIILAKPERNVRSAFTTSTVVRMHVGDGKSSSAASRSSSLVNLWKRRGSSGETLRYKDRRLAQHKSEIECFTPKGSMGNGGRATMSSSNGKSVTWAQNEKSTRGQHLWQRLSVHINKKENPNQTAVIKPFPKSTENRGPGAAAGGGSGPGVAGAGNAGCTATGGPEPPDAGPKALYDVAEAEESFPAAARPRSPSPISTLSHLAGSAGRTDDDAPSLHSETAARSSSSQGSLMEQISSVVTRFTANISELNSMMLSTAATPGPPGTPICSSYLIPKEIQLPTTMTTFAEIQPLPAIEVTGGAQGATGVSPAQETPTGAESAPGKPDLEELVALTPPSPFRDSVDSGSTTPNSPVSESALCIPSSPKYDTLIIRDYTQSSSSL
# Method: (§1) HEK 293A cells stably expressing rat mGlu5 were plated in black-walled, clear-bottomed, poly-D-lysine coated 384-well plates in 20 μL of assay medium (DMEM containing 10% dialyzed FBS, 20 mM HEPES, 100 units/mL penicillin/streptomycin plus 250 ng/mL Fungizone, and 1 mM sodium pyruvate) at a density of 20K cells/well. The cells were grown overnight at 37° C. in the presence of 5% CO2. The next day, medium was removed and the cells incubated with 20 μL of […] Fluo-4, AM prepared as a 2.3 mM stock in DMSO and mixed in a 1:1 ratio with 10% (w/v) pluronic acid F-127 and diluted in assay buffer (Hank's balanced salt solution, 20 mM HEPES, and 2.5 mM probenecid) for 45 minutes at 37° C. Dye was removed, 20 μL of assay buffer was added, and the plate was incubated for 5 minutes at room temperature.
# (§2) Ca^2+ flux was measured using the Functional Drug Screening System (FDSS7000, Hamamatsu, Japan). After establishment of a fluorescence baseline for about 3 seconds, the compounds of the present invention were added to the cells, and the response in cells was measured. 2.3 minutes later an EC20 concentration of the mGlu5 receptor agonist glutamate was added to the cells, and the response of the cells was measured for 1.9 minutes; an EC80 concentration of agonist was added and readings taken for an additional 1.7 minutes. All test compounds were dissolved and diluted to a concentration of 10 mM in 100% DMSO. Compounds were then serially diluted 1:3 in DMSO into 10 point concentration response curves, transferred to daughter plates, and further diluted into assay buffer to a 2× stock. Calcium fluorescence measures were recorded as fold over basal fluorescence; raw data was then normalized to the maximal response to glutamate.
# (§3) The raw data file containing all time points was used as the data source in the analysis template. This was saved by the FDSS as a tab-delimited text file. Data were normalized using a static ratio function (F/F0) for each measurement of the total 360 values per well divided by each well's initial value. Data were then reduced to peak amplitudes (Max−Initial Min) using a time range that starts approximately 3 seconds prior to the glutamate EC20/EC80 addition and continues for approximately 90-120 seconds. This is sufficient time to capture the peak amplitude of the cellular calcium response. Individual amplitudes were expressed as % EMax by multiplying each amplitude by 100 and then dividing the product by the mean of the amplitudes derived from the glutamate ECMax-treated wells. EC50 values for test compounds were generated by fitting the normalized values versus the log of the test compound concentration (in mol/L) using a 4 parameter logistic equation where none of the parameters were fixed. Each of the three values collected at each concentration of test compound were weighted evenly.
# rat mGlu2 = rat mGlu2 (Rattus norvegicus (Rat), UniProt P31421); assay: mGlu2 Ca2+ flux assay; conditions: NAM, glutamate EC80; >30,000 = no measurable activity
# Chain of rat mGlu2 (P31421 19-872): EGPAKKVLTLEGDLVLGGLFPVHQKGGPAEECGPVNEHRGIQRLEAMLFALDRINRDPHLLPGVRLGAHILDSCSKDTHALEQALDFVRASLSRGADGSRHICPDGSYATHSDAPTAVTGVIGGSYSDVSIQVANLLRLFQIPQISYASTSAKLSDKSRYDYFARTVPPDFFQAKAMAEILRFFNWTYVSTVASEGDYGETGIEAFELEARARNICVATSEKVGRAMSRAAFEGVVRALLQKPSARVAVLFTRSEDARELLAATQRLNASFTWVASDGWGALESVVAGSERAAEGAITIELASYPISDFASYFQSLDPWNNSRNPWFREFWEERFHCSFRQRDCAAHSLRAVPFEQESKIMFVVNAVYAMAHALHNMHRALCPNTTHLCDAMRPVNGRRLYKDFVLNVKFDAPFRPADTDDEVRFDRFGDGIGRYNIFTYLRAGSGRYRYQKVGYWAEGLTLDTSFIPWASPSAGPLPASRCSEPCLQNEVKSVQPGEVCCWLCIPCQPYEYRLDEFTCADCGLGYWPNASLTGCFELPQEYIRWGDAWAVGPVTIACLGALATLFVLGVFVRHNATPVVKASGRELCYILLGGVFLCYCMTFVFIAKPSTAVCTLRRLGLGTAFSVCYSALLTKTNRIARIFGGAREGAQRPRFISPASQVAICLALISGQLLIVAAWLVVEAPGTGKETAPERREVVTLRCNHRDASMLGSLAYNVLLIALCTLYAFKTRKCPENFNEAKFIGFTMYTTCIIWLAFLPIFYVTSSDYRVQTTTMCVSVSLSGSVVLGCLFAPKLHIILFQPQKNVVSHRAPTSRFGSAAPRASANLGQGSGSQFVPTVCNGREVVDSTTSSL
# Method: as §1, with “Gα15 HEK293” for “HEK 293A”, “mGlu2” for “mGlu5”, “HEPES,” for “HEPES, 100 units/mL penicillin/streptomycin plus 250 ng/mL Fungizone,”, “12K” for “20K”
# as §2, with “mGlu2” for “mGlu5”
# as §3, with “EC80” for “EC20/EC80”, “90” for “90-120”, “ECMax” for “EMax”, “IC50” for “EC50”
# rat mGlu3 = rat mGlu3 (Rattus norvegicus (Rat), UniProt P31422); assay: mGlu3 Ca2+ flux assay; conditions: for IC50: NAM, glutamate EC80, >10,000 = decrease without plateau, >30,000 = no measurable activity; for remaining activity at 30 µM: read-out: rat mGlu3 Glu max (%)
# Chain of rat mGlu3 (P31422 23-879): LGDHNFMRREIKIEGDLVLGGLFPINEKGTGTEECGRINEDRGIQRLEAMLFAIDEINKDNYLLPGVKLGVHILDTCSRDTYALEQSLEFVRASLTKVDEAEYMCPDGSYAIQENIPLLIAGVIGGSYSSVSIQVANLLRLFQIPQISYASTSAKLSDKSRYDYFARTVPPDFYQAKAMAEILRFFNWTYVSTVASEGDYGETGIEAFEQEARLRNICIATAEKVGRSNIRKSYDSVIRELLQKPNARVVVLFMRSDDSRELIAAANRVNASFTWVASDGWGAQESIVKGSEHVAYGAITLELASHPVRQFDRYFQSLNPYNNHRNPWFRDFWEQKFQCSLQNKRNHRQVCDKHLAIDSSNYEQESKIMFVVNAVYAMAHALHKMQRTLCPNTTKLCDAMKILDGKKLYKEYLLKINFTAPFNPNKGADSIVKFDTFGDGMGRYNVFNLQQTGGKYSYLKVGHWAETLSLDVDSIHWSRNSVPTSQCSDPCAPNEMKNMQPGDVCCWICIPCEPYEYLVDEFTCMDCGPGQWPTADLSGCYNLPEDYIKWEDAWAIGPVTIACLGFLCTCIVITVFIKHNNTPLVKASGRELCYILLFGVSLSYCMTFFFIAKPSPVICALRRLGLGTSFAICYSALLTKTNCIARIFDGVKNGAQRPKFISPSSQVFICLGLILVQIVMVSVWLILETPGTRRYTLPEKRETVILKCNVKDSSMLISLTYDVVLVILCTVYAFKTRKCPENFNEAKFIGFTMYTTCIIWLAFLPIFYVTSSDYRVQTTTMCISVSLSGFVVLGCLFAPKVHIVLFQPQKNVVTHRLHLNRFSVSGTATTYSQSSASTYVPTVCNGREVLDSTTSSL
# Method: Gα15/TREx cells stably expressing rat mGlu3 were plated in black-walled, clear-bottomed, poly-D-lysine coated 384-well plates in 20 μL of assay medium (DMEM containing 10% dialyzed FBS, 20 mM HEPES, 25 ng/mL tetracycline, 100 units/mL penicillin/streptomycin plus 250 ng/mL Fungizone, and 1 mM sodium pyruvate) at a density of 15K cells/well. The cells were grown overnight at 37° C. in the presence of 5% CO2. […] Dye was removed, 20 μL of assay buffer was added, and the plate was incubated for 10 minutes at room temperature.
# as §2, with “mGlu3” for “mGlu5”
# as §3, with “EC80” for “EC20/EC80”, “90” for “90-120”
# [1] = PAM, response at 30 μM test compound as percentage of maximal response to glutamate
# [2] = response at 30 μM test compound as percentage of maximal response to glutamate
Compound,EC50 (rat mGlu5; PAM) [µM],activity at 30 µM (rat mGlu5; [1]) [%],IC50 (rat mGlu2) [µM],IC50 (rat mGlu3) [µM],remaining activity at 30 µM (rat mGlu3; [2]) [%],activity at 30 µM (rat mGlu5) [%],remaining activity at 30 µM (rat mGlu3) [%]
"O=c1cc(OCCOc2cccc(F)c2)ccn1-c1ccc(F)cc1 [Compound 31, 4-(2-(3-fluorophenoxy)ethoxy)-1-(4-fluorophenyl)pyridin-2(1H)-one]",1.46,93.2,> 30,0.514,1.95,,
"O=c1cc(OCCOc2cc(Cl)ccn2)ccn1-c1ccc(F)cc1 [Compound 49, 4-(2-((4-Chloropyridin-2-yl)oxy)ethoxy)-1-(4-fluorophenyl)pyridin-2(1H)-one]",8.8,82.3,> 30,0.563,0.73,,
"N#Cc1ccnc(OCCOc2ccn(-c3ccc(F)cc3)c(=O)c2)c1 [Compound 57, 2-(2-((1-(4-fluorophenyl)-2-oxo-1,2-dihydropyridin-4-yl)oxy)ethoxy)isonicotinonitrile]",> 10,38.7,> 30,0.753,-0.4,,
"O=c1cc(OCCOc2ccccc2F)ccn1-c1ccc(F)cc1 [Compound 30, 4-(2-(2-fluorophenoxy)ethoxy)-1-(4-fluorophenyl)pyridin-2(1H)-one]",1.87,92.8,> 30,0.897,2.48,,
"O=c1nc(OCCOc2ccccc2)ccn1-c1cccc(F)c1 [Compound 14, 1-(3-fluorophenyl)-4-(2-phenoxyethoxy)pyrimidin-2(1H)-one]",3.54,77.5,> 30,0.296,1.61,,
"O=c1cc(OCCOc2cccnc2)ccn1-c1ccc(F)cc1 [Compound 44, 1-(4-fluorophenyl)-4-(2-(pyridin-3-yloxy)ethoxy)pyridin-2(1H)-one]",,,> 30,10,1.83,,
"O=c1cc(OCCOc2ccccc2)ccn1-c1cc(F)cc(F)c1 [Compound 21, 1-(3,5-difluorophenyl)-4-(2-phenoxyethoxy)pyridin-2(1H)-one]",0.818,,,0.799,,28.3,7.25
"O=c1cc(OCCOc2c(F)cccc2F)ccn1-c1ccc(F)cc1 [Compound 36, 4-(2-(2,6-difluorophenoxy)ethoxy)-1-(4-fluorophenyl)pyridin-2(1H)-one]",,,> 30,3.18,-1.16,,
"COCc1ccc(OCCOc2ccn(-c3ccc(F)cc3)c(=O)c2)cc1 [Compound 43, 1-(4-fluorophenyl)-4-(2-(4-(methoxymethyl)phenoxy)ethoxy)pyridin-2(1H)-one]",,,> 30,> 10,37.3,,
"O=c1cc(OCCOc2ccccc2)cnn1-c1ccc(F)cc1 [Compound 29, 2-(4-Fluorophenyl)-5-(2-phenoxyethoxy)pyridazin-3(2H)-one]",,,> 30,3.87,5.86,,
"N#Cc1ccc(OCCOc2ccn(-c3ccc(F)cc3)c(=O)c2)nc1 [Compound 58, 6-(2-((1-(4-fluorophenyl)-2-oxo-1,2-dihydropyridin-4-yl)oxy)ethoxy)nicotinonitrile]",,,> 30,1.38,1.06,,
"N#Cc1ccc(OCCOc2ccn(-c3ccc(F)cc3)c(=O)c2)cc1 [Compound 42, 4-(2-((1-(4-fluorophenyl)-2-oxo-1,2-dihydropyridin-4-yl)oxy)ethoxy)benzonitrile]",,,> 30,1.13,0.74,,
"O=c1cc(OCCOc2cc(F)ccc2F)ccn1-c1ccc(F)cc1 [Compound 35, 4-(2-(2,5-difluorophenoxy)ethoxy)-1-(4-fluorophenyl)pyridin-2(1H)-one]",,,> 30,1.46,2.27,,
"N#Cc1ccc(-n2ccc(OCCOc3ccccc3)cc2=O)cc1 [Compound 24, 4-(2-oxo-4-(2-phenoxyethoxy)pyridin-1(2H)-yl)benzonitrile]",,,> 30,3.17,0.49,,
"O=c1cc(OCCOc2ccc(F)cc2F)ccn1-c1ccc(F)cc1 [Compound 34, 4-(2-(2,4-difluorophenoxy)ethoxy)-1-(4-fluorophenyl)pyridin-2(1H)-one]",,,> 30,1.45,1.32,,
"O=c1nc(OCCOc2ccccc2)ccn1-c1ccc(F)cn1 [Compound 16, 1-(5-fluoropyridin-2-yl)-4-(2-phenoxyethoxy)pyrimidin-2(1H)-one]",,,> 30,> 10,23.9,,
